Laboratory results taken from patent US20180284095A1, “BIOMARKERS ASSOCIATED WITH LSD1 INHIBITORS AND USES THEREOF” (Oryzon Genomics, S.A., priority 2015, published 2018).

Key:
Format in all cases: in vivo, mouse
TUBB2C = test: Microarray gene expression, hippocampus of SAMP8 mice (Example 3), housekeeping gene; conditions: SAMP8 female pool
Protocol: (§1) Total RNA was extracted from samples using the RNeasy extraction kit (Qiagen). The quality and concentration of the RNA was analyzed using the Agilent 2100 bioanalyzer and NanoDrop™ ND-1000 (Thermo Scientific). Samples with RNA integrity number (RIN)<6.0 were discarded. Total RNA (0.5 μg) amplification and labelling with Cy3 or Cy5 was carried out using the Eberwein mRNA amplification procedure (Van Gelder et al, Proc Natl Acad Sci USA 1990, 87:1663-1667) employing the MessageAmp™ aRNA amplification kit from Ambion (Applied Biosystems) following the manufacturer's instructions with minor modifications. As hybridization controls, plant mRNAs were transcribed from a plasmid containing the Zea mays Xet (xyloglucan endo-transglycosylase) cDNA and from a plasmid containing the Zea mays Zmmyb42 cDNA, independently prepared Cy3 and Cy5 labelled aRNA from these two RNAs using the Eberwein mRNA amplification procedure (as disclosed in Cerdà et al, Gen Comp Endocrinol 2008, 156:470-481).
(§2) The Cy3- and Cy5-labelled cRNAs and spikes were combined and hybridized to the microarray described in Example 2.6 for 17 h at 60° C. using Agilent's gaskets G2534-60002, G2534A hybridization chambers and DNA Hybridization Oven G2545A, according to the manufacturer's instructions. More specifically, equal amounts of Cy3 and Cy5 labeled Xet aRNA as well as equal amounts of Cy3 and Cy5 labeled Zmmyb42 aRNA were spiked into each mixture hybridized to the array. Arrays were washed and raw data were obtained using Agilent's DNA Microarray Scanner G2505B and Feature Extraction software (v10.1). The raw fluorescence intensity data were processed using applicant's proprietary software, and consists in the following operations:
(§3) Data normalization was carried out by an improved version of the nonlinear Q-splines normalization method (Workman et al., Genome Biol 2002, 3(9):research0048.1-0048.16). Normalization results were presented graphically as MA plots, as first described by Dudoit et al (Dudoit et al, Statistica Sinica, 2002, 12:111-139). Each point corresponds to a probe of the DNA array. M values (vertical axis) are the log-differential expression ratios. A values (horizontal axis) are the log-intensities of the spots. M and A are calculated from the Cy5 and Cy3 intensity values as of each spot. The DNA Array data is normalized using an improved version of non-linear Q-Splines normalization described by Workman et al., Genome Biol 2002, 3(9):research0048.1-0048.16. This process is useful to correct the deviation of the M values from the statistical assumption that most of the spots have M=0 in MA plots. The method allows the adjustment of all M values to form a cloud centered at M=0 in all intensity ranges. The data used to calculate the normalization fitting curve is the totality of the raw measurement dataset, excluding the signals for the probes for the spiked-in plant RNA controls and negative controls. In order to be able to normalize properly the data among all the experiments, the probe-set must include an important group of genes that should have no change (M=0) in the experiment. The normalization function is then applied to all the data, including controls.
(§4) Normalized and log-transformed data were used to calculate log 2 (sample/control) and Fold Change (FC) values. No background subtraction was applied to the signal intensity values during data processing, permitting robust selection of differentially expressed genes with low expression levels at the cost of potential sub-estimation of change when intensity levels are close to the array background level.
(§5) The technical replicate analysis is the statistical processing of the microarray data. Replicates were calculated to measure oligo replicates on an array or between replicates of experiments on different arrays (i.e. hybridization of the same sample). […]

TUBB3 = test: as above; conditions: SAMP8 female pool
Protocol: as §1, §2, §3, §4, §5

S100A9 = test: Illumina RNA sequencing, hippocampus of SAMP8 mice (Example 4)
Protocol: Illumina dye sequencing begins with the attachment of cDNA molecules to primers on a slide, followed by amplification of that DNA to produce local colonies. The four types (adenine, cytosine, guanine, and thymine) of reversible terminate bases are added, each fluorescently labeled with a different color and attached with a blocking group. The four bases then compete for binding sites on the template cDNA to be sequenced and non-incorporated molecules are washed away. After each synthesis, a laser is used to excite the dyes and a photograph of the incorporated base is taken. A chemical deblocking step is then used in the removal of the 3′ terminal blocking group and the dye in a single step. The process is repeated until the full cDNA molecule is sequenced.
Illumina RNA-Seq technology records the numerical frequency of sequences in a library population. 50 bp single reads with multiples of 30M single reads are guaranteed using Illumina sequencing technology. The RNA-Seq reads are aligned to the reference genome or reference transcriptome using Bowtie generating genome/transcriptome alignments. TopHat identifies the potential exon-exon splice junctions of the initial alignment. Then Cufflinks identifies and quantifies the transcripts from the preprocessed RNA-Seq alignment assembly. After this, Cuffmerge merges the identified transcript pieces to full length transcripts and annotates the transcripts based on the given annotations. Finally, merged transcripts from two or more samples/conditions are compared using Cuffdiff to determine the differential expression levels at transcript and gene level including a measure of significance between samples/conditions.
Differential gene expression. Operating on the RNA-Seq alignments and Cuffinks processing, Cuffdiff tracks the mapped reads and determines the fragment per kilo base per million mapped reads (FPKM) for each transcript in all the samples. Primary transcripts and gene FPKMs are then computed by adding up the FPKMs of each primary transcript group or gene group. […]

C57BL/6 mice = test: Experimental Autoimmune Encephalomyelitis (EAE) model, MOG35-55
Protocol: In particular, the murine EAE model as described herein, using MOG35-55 and C57BL/6 mice strain, is considered a validated preclinical model of the chronic progressive form of MS.
To induce chronic EAE by active immunization, C57BL/6 mice were immunized s.c. with 100 μg of myelin oligodendrocyte glycoprotein MOG35-55 emulsified in complete Freund's adjuvant (CFA) containing 4 mg/ml Mycobacterium tuberculosis H37 RA. Mice also received i.p. injections of 200 ng of pertussis toxin on days 0 and 2.
Mice were scored daily for signs of EAE according to the following clinical scoring system: 0, no clinical signs; 0.5, partial loss of tail tonicity; 1, complete loss of tail tonicity; 2, flaccid tail and abnormal gait; 3, hind leg paralysis; 4, hind leg paralysis with hind body paresis; 5, hind and fore leg paralysis; and 6, death.

Substance: (−) 5-((((trans)-2-(4-(benzyloxy)phenyl)cyclopropyl)amino)methyl)-1,3,4-oxadiazol-2-amine [Compound 1]
- Hybridization signal sample_Cy5 TUBB2C (TUBB2C; HD 3.2 mg/kg/day): 9173
- log2 (sample/control) TUBB2C (TUBB2C; HD 3.2 mg/kg/day vs SAMP8 VEH): 0.1327
- Hybridization signal sample_Cy5 TUBB2C (TUBB2C; LD 0.96 mg/kg/day): 9392.47
- log2 (sample/control) TUBB2C (TUBB2C; LD 0.96 mg/kg/day vs SAMP8 VEH): 0.1199
- Hybridization signal sample_Cy5 TUBB3 (TUBB3; HD 3.2 mg/kg/day): 3168.4
- log2 (sample/control) TUBB3 (TUBB3; HD 3.2 mg/kg/day vs SAMP8 VEH): 0.05769
- Hybridization signal sample_Cy5 TUBB3 (TUBB3; LD 0.96 mg/kg/day): 3002.3
- log2 (sample/control) TUBB3 (TUBB3; LD 0.96 mg/kg/day vs SAMP8 VEH): 0.04498
- Female FPKM S100A9 (S100A9; hippocampus pool, SAMP8 females, 0.96 mg/kg/day, 4 months): 0.61 FPKM
- Male FPKM S100A9 (S100A9; hippocampus pool, SAMP8 males, 0.32 mg/kg/day, 4 months): 1.03 FPKM
- S100A9 expression (RNA-seq) (S100A9; hippocampus, SAMP8, vs vehicle-treated animals of the same sex): down-regulated S100A9 expression
- development of EAE, disease incidence and severity measured by daily clinical score (C57BL/6 mice; 1 or 3 mg/kg oral once a day, days 12-16 and 19-23 postimmunization): greatly inhibited the development of EAE
- mice almost completely recovered (C57BL/6 mice; 40 days after disease onset): 30%
- duration of protective effect (C57BL/6 mice; after cessation of the treatment): maintained for a long-period of time after cessation of the treatment
- mice displaying mild symptoms (C57BL/6 mice; group treated with 1 or 3 mg/kg oral): 40-70%
